Experiment: The TLC plates are then dried, exposed to a phosphorimager screen (Storm, Amersham), and quantitated. For each compound, kinase activity is measured at 10-12 inhibitor concentrations representing two-fold dilutions from the highest concentration tested (typically, 200 μM).

Structure (SMILES) | IC50
C[C@H](NC(=O)c1c(N)nn2cccnc12)c1cc2cccc(Cl)c2c(=O)n1CCCNS(C)(=O)=O | in the range around 0.75 µM
Cc1cccc2c(=O)n(-c3ccccc3)c([C@H](C)NC(=O)c3c(N)nn4cccnc34)nc12 | in the range around 5.5 µM
C[C@H](NC(=O)c1c(N)nn2cccnc12)c1cc2cccc(Cl)c2c(=O)n1CCc1ccccc1 | in the range around 5.5 µM
COc1ccccc1-n1c([C@H](C)NC(=O)c2c(N)nn3cccnc23)cc2cccc(Cl)c2c1=O | in the range around 5.5 µM
C[C@H](NC(=O)c1c(N)nn2cccnc12)c1cc2cccc(Cl)c2c(=O)n1-c1cccnc1 | in the range around 5.5 µM
C[C@H](NC(=O)c1c(N)nn2cccnc12)c1cc2cccc(-c3cnn(CC#N)c3)c2c(=O)n1-c1ccccc1 | in the range around 5.5 µM
C[C@H](NC(=O)c1nccnc1N)c1nc2cccc(Cl)c2c(=O)n1-c1ccc(F)cc1 | in the range around 5.5 µM
C[C@H](NC(=O)c1c(N)nn2cccnc12)c1cc2cccc(Cl)c2c(=O)n1CCc1nnn(C)n1 | in the range around 5.5 µM
CCS(=O)(=O)NCCn1c([C@H](C)NC(=O)c2c(N)nn3cccnc23)cc2cccc(Cl)c2c1=O | in the range around 5.5 µM
Cc1ccnc2c(C(=O)N[C@@H](C)c3cc4cccc(Cl)c4c(=O)n3-c3ccccc3)c(N)nn12 | in the range around 5.5 µM
C[C@H](NC(=O)c1c(N)nn2cccnc12)c1cc2cccc(Cl)c2c(=O)n1CCCS(C)(=O)=O | in the range around 5.5 µM
C[C@H](NC(=O)c1c(N)nn2cccnc12)c1cc2cccc(Cl)c2c(=O)n1CCNS(C)(=O)=O | in the range around 5.5 µM
C[C@H](NC(=O)c1c(N)nn2cccnc12)c1cc2cccc(CC(=O)C(C)(C)C)c2c(=O)n1-c1ccccc1 | in the range around 5.5 µM
C[C@H](NC(=O)c1c(N)nn2cccnc12)c1cc2cccc(Cl)c2c(=O)n1CCc1nnn[nH]1 | in the range around 5.5 µM
C[C@H](NC(=O)c1c(N)nn2cccnc12)c1cc2cccc(Cl)c2c(=O)n1C1CCC1 | in the range around 5.5 µM
C[C@H](NC(=O)c1c(N)nn2cccnc12)c1cc2cccc(Cl)c2c(=O)n1-c1cccc(NS(C)(=O)=O)c1 | in the range around 5.5 µM
C[C@H](NC(=O)c1c(N)nn2cccnc12)c1cc2cccc(Cl)c2c(=O)n1-c1ccc(O)cc1 | in the range around 5.5 µM
C[C@H](NC(=O)c1c(N)nn2cccnc12)c1cc2cccc(Cl)c2c(=O)n1CCc1ncn[nH]1 | in the range around 5.5 µM
C[C@H](NC(=O)c1c(N)nn2cccnc12)c1nc2ccccc2c(=O)n1-c1ccccc1 | in the range around 5.5 µM

Structure (SMILES) | IC50
Cc1noc(CCn2c([C@H](C)NC(=O)c3c(N)nn4cccnc34)cc3cccc(Cl)c3c2=O)n1 | in the range around 5.5 µM
Cc1ccc(-n2c([C@H](C)NC(=O)c3c(N)nn4cccnc34)cc3cccc(Cl)c3c2=O)cc1 | in the range around 5.5 µM
C[C@H](NC(=O)c1c(N)nn2cccnc12)c1cc2cccc(Cl)c2c(=O)n1-c1cccc(O)c1 | in the range around 5.5 µM
C[C@H](NC(=O)c1c(N)nn2cccnc12)c1cc2cccc(Cl)c2c(=O)n1Cc1nnn[nH]1 | in the range around 5.5 µM
C[C@H](NC(=O)c1c(N)nn2cccnc12)c1cc2cccc(Cl)c2c(=O)n1CCc1nnnn1C | in the range around 5.5 µM
C[C@H](NC(=O)c1c(N)ncn2ccnc12)c1cc2cccc(Cl)c2c(=O)n1-c1ccccc1 | in the range around 5.5 µM
CNS(=O)(=O)CCn1c([C@H](C)NC(=O)c2c(N)nn3cccnc23)cc2cccc(Cl)c2c1=O | in the range around 5.5 µM
C[C@H](NC(=O)c1c(N)nn2cccnc12)c1oc2ccc(F)cc2c(=O)c1-c1ccccc1 | in the range around 5.5 µM
C[C@H](NC(=O)c1c(N)nn2cccnc12)c1nc2cccc(N3CCOCC3)c2c(=O)n1-c1ccccc1 | in the range around 5.5 µM
C[C@H](NC(=O)c1c(N)nn2cccnc12)c1cc2cccc(Cl)c2c(=O)n1-c1ccc(NS(C)(=O)=O)cc1 | in the range around 5.5 µM
C[C@H](NC(=O)c1c(N)nn2cccnc12)c1cc2cccc(OCc3cnn(C)c3)c2c(=O)n1-c1ccccc1 | in the range around 5.5 µM
CC(=O)Cc1cccc2nc([C@H](C)NC(=O)c3c(N)nn4cccnc34)n(-c3ccccc3)c(=O)c12 | in the range around 5.5 µM
C[C@H](NC(=O)c1c(N)nn2cccnc12)c1nc2c(Cl)cccc2c(=O)n1-c1ccccc1 | in the range around 5.5 µM
C[C@H](NC(=O)c1c(N)nn2cccnc12)c1cc2cccc(Cl)c2c(=O)n1-c1ccccc1NS(C)(=O)=O | in the range around 5.5 µM
C[C@H](NC(=O)c1c(N)nn2cccnc12)c1cc2cccc(Cl)c2c(=O)n1-c1ccccc1O | in the range around 5.5 µM
C[C@H](NC(=O)c1c(N)nn2cccnc12)c1cc2cccc(Cl)c2c(=O)n1CCS(N)(=O)=O | in the range around 5.5 µM
C[C@H](NC(=O)c1c(N)nn2cccnc12)c1cc2cccc(-c3cnn(CC(F)(F)F)c3)c2c(=O)n1-c1ccccc1 | in the range around 5.5 µM
C[C@H](NC(=O)c1nccnc1N)c1oc2ccc(F)cc2c(=O)c1-c1ccccc1 | in the range around 5.5 µM
C[C@H](NC(=O)c1c(N)nn2cccnc12)c1cc2cccc(Cl)c2c(=O)n1C1CC(NS(C)(=O)=O)C1 (stereo partly specified) | in the range around 5.5 µM

Structure (SMILES) | IC50
C[C@H](NC(=O)c1c(N)nn2cccnc12)c1nc2cccc(Cl)c2c(=O)n1-c1ccc(F)cc1 | in the range around 5.5 µM
C[C@H](NC(=O)c1nc(C2CC2)cnc1N)c1cc2cccc(Cl)c2c(=O)n1-c1ccccc1 | in the range around 5.5 µM
C[C@H](NC(=O)c1c(N)nn2cccnc12)c1nc2ccc(Cl)cc2c(=O)n1-c1ccccc1 | in the range around 5.5 µM
CCn1cc(-c2cccc3cc([C@H](C)NC(=O)c4c(N)nn5cccnc45)n(-c4ccccc4)c(=O)c23)cn1 | in the range around 5.5 µM
C[C@H](NC(=O)c1c(N)nn2cccnc12)c1cc2cccc(Cl)c2c(=O)n1-c1cccc(S(C)(=O)=O)c1 | in the range around 5.5 µM
C[C@H](NC(=O)c1c(N)nn2cccnc12)c1cc2cccc(Cl)c2c(=O)n1CCS(=O)(=O)N(C)C | in the range around 0.75 µM
C[C@H](NC(=O)c1nccnc1N)c1cc2cccc(C(F)(F)F)c2c(=O)n1-c1ccccc1 | in the range around 5.5 µM
C[C@H](NC(=O)c1c(N)nn2cccnc12)c1cc2cccc(Cl)c2c(=O)n1CCc1cnn[nH]1 | in the range around 5.5 µM
Cc1ccccc1-n1c([C@H](C)NC(=O)c2c(N)nn3cccnc23)cc2cccc(Cl)c2c1=O | in the range around 5.5 µM
Cc1cccc(-n2c([C@H](C)NC(=O)c3c(N)nn4cccnc34)cc3cccc(Cl)c3c2=O)c1 | in the range around 5.5 µM
C[C@H](NC(=O)c1c(N)nn2cccnc12)c1nc2cccc(Cl)c2c(=O)n1-c1ccc(F)c(F)c1 | in the range around 5.5 µM
C#CCCn1c([C@H](C)NC(=O)c2c(N)nn3cccnc23)cc2cccc(Cl)c2c1=O | in the range around 5.5 µM
C[C@H](NC(=O)c1c(N)nn2cccnc12)c1cc2cccc(Cl)c2c(=O)n1-c1ccc(S(C)(=O)=O)cc1 | in the range around 5.5 µM
C[C@H](NC(=O)c1c(N)nn2cccnc12)c1cc2cccc(Cl)c2c(=O)n1-c1ccccc1F | in the range around 5.5 µM
C[C@H](NC(=O)c1c(N)nn2cccnc12)c1cc2cccc(OCC(F)(F)F)c2c(=O)n1-c1ccccc1 | in the range around 5.5 µM
CC(C)C(=O)Cc1cccc2cc([C@H](C)NC(=O)c3c(N)nn4cccnc34)n(-c3ccccc3)c(=O)c12 | in the range around 5.5 µM
C[C@H](NC(=O)c1c(N)nn2cccnc12)c1cc2cccc(Cl)c2c(=O)n1CCc1noc(C(C)(C)C)n1 | in the range around 5.5 µM
C[C@H](NC(=O)c1c(N)nn2cccnc12)c1cc2cccc(Cl)c2c(=O)n1CCc1c[nH]cn1 | in the range around 5.5 µM

— ChEMBL document CHEMBL5726389, “Heterocyclic compounds and uses thereof” (2017)
